The source of these data is ChEMBL document CHEMBL1201862, “PubChem BioAssay data set” (2004).

Test systems include RXF 393; HCT-15; SR; 786-0; EKVX; SK-MEL-2; RPMI-8226; MOLT-4; NCI-H23; ACHN; SK-MEL-28; OVCAR-8; SN12C; OVCAR-3; HT-29; Malme-3M; OVCAR-5.
Common to all, as to experiment: NCI-60 cell line screen, 48 h

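Dose response: 5 concentrations. Exposure: 48 h. Format: 96-well plates. Endpoint: linear interpolation; highest concentration if not reached. Abbreviation: GI50, concentration required for 50% inhibition of growth.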 Active and inactive are the calls of the source. No stated cut-off is given here; in the data, active = GI50 up to about 1.1 µM and inactive = higher. Where only a bound is given, the exact number is not on record here.

Turning to `COc1ccc(-c2cc(O)c3cc4c(cc3n2)OCO4)cc1`, the GI50 is 38.4 µM (inactive) in the experiment with RXF 393; more than 100 µM in the experiment with HCT-15; > 100 µM (inactive) with SR; 73.1 µM (inactive) in the experiment with 786-0; 19.9 µM (inactive) with EKVX; > 100 µM (inactive) in the experiment on SK-MEL-2. Moreover, the GI50 in the experiment with RPMI-8226, with MOLT-4, in the experiment on NCI-H23, in the experiment on ACHN, in the experiment with SK-MEL-28 and in the experiment with OVCAR-8 was > 100 µM (inactive) in each case. The GI50 with SN12C, in the experiment on OVCAR-3, in the experiment with HT-29 and in the experiment on Malme-3M was > 100 µM (inactive) throughout.
As for `Cc1ccc(C2=Nc3ccccc3NC(=O)C2)cc1`, the GI50 in the experiment on RXF 393 is > 100 µM (inactive); in the experiment on HCT-15, more than 100 µM; in the experiment with OVCAR-5, > 100 µM (inactive); in the experiment on SR, > 100 µM (inactive); in the experiment with 786-0, 77.8 µM (inactive); with EKVX, > 100 µM (inactive). Also, the GI50 is > 100 µM (inactive) with SK-MEL-2; > 100 µM (inactive) in the experiment with MOLT-4; > 100 µM (inactive) in the experiment on NCI-H23; > 100 µM (inactive) in the experiment with ACHN; > 100 µM (inactive) in the experiment with SK-MEL-28; 79.8 µM (inactive) in the experiment with OVCAR-8. Besides, the GI50 with SN12C, in the experiment with OVCAR-3, in the experiment on HT-29 and in the experiment with Malme-3M was > 100 µM (inactive) in each case.
`NC1=NC(c2ccccc2)CC(c2cc(Cl)ccc2O)=N1` (stereo unspecified): the GI50 was 17.3 µM (inactive) in the experiment with RXF 393; 19.9 µM (inactive) with OVCAR-5; 15.8 µM (inactive) in the experiment on SR; 16.1 µM (inactive) in the experiment with 786-0; 15.3 µM (inactive) in the experiment on EKVX; 15.2 µM (inactive) with RPMI-8226. Moreover, the GI50 is 14.2 µM (inactive) in the experiment on MOLT-4; 15.5 µM (inactive) in the experiment on NCI-H23; 15.3 µM (inactive) in the experiment on ACHN; 18.7 µM (inactive) in the experiment on SK-MEL-28; 16.2 µM (inactive) with OVCAR-8; 13.6 µM (inactive) in the experiment with SN12C. Further, the GI50 in the experiment with OVCAR-3 was 17.5 µM (inactive); with HT-29 it was 17.5 µM (inactive); in the experiment on Malme-3M, 21.8 µM (inactive).
As for `CCOC(=O)CP(=S)(S)c1ccccc1` (stereo unspecified), the GI50 in the experiment with RXF 393, in the experiment with OVCAR-5, in the experiment on SR, with 786-0, with EKVX and with SK-MEL-2 was > 100 µM (inactive) each time. For the same compound, the GI50 with MOLT-4, in the experiment with NCI-H23, in the experiment on ACHN, in the experiment with SK-MEL-28, with OVCAR-8 and in the experiment with SN12C was > 100 µM (inactive) in each case. Besides, the GI50 in the experiment with HT-29 and in the experiment with Malme-3M was > 100 µM (inactive) each time.
Consider `CC1(C)CCC[C@@]2(C)C1CC[C@H]1CC(O)C3(C)CCC12C3` (stereo partly specified), for which the GI50 in the experiment on RXF 393 was 13.3 µM (inactive); in the experiment on HCT-15, 18.2 µM; with OVCAR-5, 18.2 µM (inactive); with SR, 21.3 µM (inactive); with 786-0, 17.5 µM (inactive); in the experiment on RPMI-8226, 25.8 µM (inactive). Moreover, the GI50 with MOLT-4 is 22 µM (inactive); in the experiment on NCI-H23, 18.7 µM (inactive); in the experiment with ACHN it was 17.9 µM (inactive); with SK-MEL-28 it was 18.4 µM (inactive); in the experiment with OVCAR-8, 18.5 µM (inactive); with SN12C, 16.9 µM (inactive). For the same compound, the figures for the GI50 in the experiment on OVCAR-3, in the experiment with HT-29 and with Malme-3M were 16.7 µM (inactive), 18.2 µM (inactive) and 16.9 µM (inactive), respectively.
